From paper PMC11735596, “Sulfoquinovosyl diacylglycerol, a component of Holy Basil Ocimum tenuiflorum, inhibits the activity of the SARS-CoV-2 main protease and viral replication in vitro” (Journal of Natural Medicines, 2024)
pEC50: −log10 of the molar value.

Tests used:
[1] = test system: SARS-CoV-2 (WK-521 strain); assay: Anti-SARS-CoV-2 assay in infected VeroE6/TMPRSS2 cells (tetrazolium dye method); settings: for Protection of infected cells from virus-induced cell death (in words): MOI 0.002, 3 days
[2] = test system: SARS-CoV-2 spike S1 and ACE2; parameters: method as in PMID 34677731; settings: cited from earlier work
in vitro = settings: African green monkey

SMILES	Protection of infected cells from virus-induced cell death (in words) [1]	Effect on interaction between SARS-CoV-2 spike S1 and ACE2 (in words) [2]	pEC50 ([1]; read-out: EC50, suppression of SARS-CoV-2 replication, MOI 0.002, 3 days)	Cytotoxicity (in words) (VeroE6/TMPRSS2 cells)	CC50 (in vitro) [µM]
CC/C=C\C/C=C\C/C=C\CCCCCCCC(=O)OC[C@H](CO[C@@H]1O[C@H](CO[C@H]2O[C@H](CO)[C@H](O)[C@H](O)[C@H]2O)[C@H](O)[C@H](O)[C@H]1O)OC(=O)CCCCCCC/C=C\C/C=C\C/C=C\CC [Compound 2, 1,2-di-(9Z,12Z,15Z-octadecatrienoyl)-3-O-(α-D-galactosyl-1-6-β-D-galactosyl)-sn-glycerol]	inhibited cell death caused by SARS-CoV-2 in a concentration-dependent manner	–	–	–	–
C=CCc1ccc(O)c(OC)c1 [eugenol]	–	inhibited the interaction between SARS-CoV-2 spike S1 and ACE2	–	–	–
CC/C=C\C/C=C\C/C=C\CCCCCCCC(=O)OC [Compound 5, Methyl linolenate, reference compound]	inhibited cell death caused by SARS-CoV-2 in a concentration-dependent manner	–	–	–	–
CC/C=C\C/C=C\C/C=C\CCCCCCCC(=O)OC[C@H](CO[C@H]1O[C@H](CS(=O)(=O)O)[C@@H](O)[C@H](O)[C@H]1O)OC(=O)CCCCCCC/C=C\C/C=C\C/C=C\CC [Compound 1, 1,2-di-(9Z,12Z,15Z-octadecatrienoyl)-3-(6′-sulfo-α-D-quinovosyl)-sn-glycerol]	dose-dependent protection	–	4.29	did not show apparent cytotoxicity	> 100
